# Test results published in ChEMBL document CHEMBL4765237, “Structural optimization and structure-activity relationship studies of N-phenyl-7,8-dihydro-6H-pyrimido[5,4-b][1,4]oxazin-4-amine derivatives as a new class of inhibitors of RET and its drug resistance mutants” (Eur J Med Chem, 2018).
# Calls of active or inactive are those of the source. The rule behind the calls is not given here.
# Assays:
# NIH3T3 = details: Homo sapiens, dose 10-30 mg/kg, time 18.0 day
# [1] = biological target: NT-3 growth factor receptor (Homo sapiens, UniProt Q16288); assay: Inhibition of recombinant human TRKC (510 to end residues) using GEEPLYWSFPAKKK as substrate incubated for 40 mins in presence of [gamma33P]ATP by scintillation counting based radiometry assay
# [2] = biological target: Platelet-derived growth factor receptor beta (Homo sapiens, UniProt P09619); assay: Inhibition of human PDGFRbeta (557 to end residues) using poly(Glu, Tyr) 4:1 as substrate measured after 40 mins in presence of [gamma33P]ATP by scintillation counting based radiometry assay
# Platelet-derived growth factor receptor beta, sequence (P09619 whole entry): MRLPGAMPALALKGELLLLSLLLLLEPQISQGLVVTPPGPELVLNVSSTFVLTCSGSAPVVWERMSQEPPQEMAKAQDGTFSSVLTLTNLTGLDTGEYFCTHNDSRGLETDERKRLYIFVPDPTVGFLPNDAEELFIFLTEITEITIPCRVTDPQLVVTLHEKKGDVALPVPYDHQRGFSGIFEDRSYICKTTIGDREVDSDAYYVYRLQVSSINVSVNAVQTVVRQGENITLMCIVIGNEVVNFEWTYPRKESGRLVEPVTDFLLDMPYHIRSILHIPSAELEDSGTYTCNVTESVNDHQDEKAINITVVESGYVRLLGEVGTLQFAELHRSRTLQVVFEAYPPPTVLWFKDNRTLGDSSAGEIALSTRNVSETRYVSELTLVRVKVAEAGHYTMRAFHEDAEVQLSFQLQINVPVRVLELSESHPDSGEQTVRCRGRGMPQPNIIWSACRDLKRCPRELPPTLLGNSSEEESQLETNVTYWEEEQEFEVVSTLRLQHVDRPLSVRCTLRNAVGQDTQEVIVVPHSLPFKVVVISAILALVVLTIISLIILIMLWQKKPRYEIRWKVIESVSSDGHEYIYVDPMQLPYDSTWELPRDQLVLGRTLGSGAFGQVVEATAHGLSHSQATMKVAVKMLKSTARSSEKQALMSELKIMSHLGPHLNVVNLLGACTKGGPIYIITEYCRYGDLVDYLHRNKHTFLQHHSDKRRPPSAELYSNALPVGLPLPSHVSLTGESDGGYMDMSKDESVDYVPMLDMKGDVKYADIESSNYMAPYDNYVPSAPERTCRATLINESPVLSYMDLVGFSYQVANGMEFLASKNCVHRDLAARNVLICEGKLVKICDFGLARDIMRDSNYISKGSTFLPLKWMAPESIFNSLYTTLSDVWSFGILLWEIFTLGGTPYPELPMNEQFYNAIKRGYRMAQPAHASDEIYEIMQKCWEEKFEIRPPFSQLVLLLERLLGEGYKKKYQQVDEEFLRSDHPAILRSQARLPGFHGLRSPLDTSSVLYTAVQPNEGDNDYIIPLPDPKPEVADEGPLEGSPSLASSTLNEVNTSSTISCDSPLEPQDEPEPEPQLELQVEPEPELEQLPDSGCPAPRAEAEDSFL
# BGC-823 = assay: Growth inhibition of human BGC-823 cells incubated for 3 days by MTT assay; assay type: functional; details: BGC-823, 72 h, time 3 day
# [3] = biological target: Vascular endothelial growth factor receptor 3 (Homo sapiens, UniProt P35916); assay: Inhibition of recombinant human FLT4 (800 to end residues) using GGEEEEYFELVKKKK as substrate incubated for 40 mins in presence of [gamma-33ATP] by scintillation counting based radiometry assay
# [4] = biological target: Serine/threonine-protein kinase WNK3 (Homo sapiens, UniProt Q9BYP7); assay: Inhibition of recombinant human WNK3 (1 to 434 residues) using myelin basic protein as substrate incubated for 40 mins in presence of [gamma33P]ATP by scintillation counting based radiometry assay
# [5] = biological target: Mitogen-activated protein kinase 11 (Homo sapiens, UniProt Q15759); assay: Inhibition of recombinant human full length SAPK2b using myelin basic protein as substrate incubated for 40 mins in presence of [gamma33P]ATP by scintillation counting based radiometry assay
# Mitogen-activated protein kinase 11, sequence (Q15759 whole entry, the tested form may be a part): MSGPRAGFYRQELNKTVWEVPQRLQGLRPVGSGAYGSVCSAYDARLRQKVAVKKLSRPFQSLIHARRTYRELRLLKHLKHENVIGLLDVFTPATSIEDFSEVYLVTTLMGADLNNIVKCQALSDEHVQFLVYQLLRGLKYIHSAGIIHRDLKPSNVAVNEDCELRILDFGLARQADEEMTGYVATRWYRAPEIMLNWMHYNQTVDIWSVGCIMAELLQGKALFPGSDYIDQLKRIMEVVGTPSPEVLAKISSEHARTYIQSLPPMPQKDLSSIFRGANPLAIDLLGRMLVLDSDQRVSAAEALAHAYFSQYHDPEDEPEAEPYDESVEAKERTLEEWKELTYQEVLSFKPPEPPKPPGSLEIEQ
# [6] = biological target: Tyrosine-protein kinase Mer (Homo sapiens, UniProt Q12866); assay: Inhibition of recombinant human MER (557 to 882 residues) using KKLNRTLSFAEPG as substrate incubated for 40 mins in presence of [gamma-33ATP by scintillation counting based radiometry assay
# [7] = Growth inhibition of […] BaF3 cells harboring BCR abl mutant incubated for 3 days by MTT assay; assay type: functional; details: BaF3, 72 h; time 3 day
# Ephrin type-B receptor 2 = Ephrin type-B receptor 2 (Homo sapiens, UniProt P29323); assay: Inhibition of recombinant human EphB2 (560 to end residues) using poly(Glu, Tyr) 4:1 as substrate incubated for 40 mins in presence of [gamma-33ATP] by scintillation counting based radiometry assay
# Ephrin type-B receptor 2, sequence (P29323 whole entry): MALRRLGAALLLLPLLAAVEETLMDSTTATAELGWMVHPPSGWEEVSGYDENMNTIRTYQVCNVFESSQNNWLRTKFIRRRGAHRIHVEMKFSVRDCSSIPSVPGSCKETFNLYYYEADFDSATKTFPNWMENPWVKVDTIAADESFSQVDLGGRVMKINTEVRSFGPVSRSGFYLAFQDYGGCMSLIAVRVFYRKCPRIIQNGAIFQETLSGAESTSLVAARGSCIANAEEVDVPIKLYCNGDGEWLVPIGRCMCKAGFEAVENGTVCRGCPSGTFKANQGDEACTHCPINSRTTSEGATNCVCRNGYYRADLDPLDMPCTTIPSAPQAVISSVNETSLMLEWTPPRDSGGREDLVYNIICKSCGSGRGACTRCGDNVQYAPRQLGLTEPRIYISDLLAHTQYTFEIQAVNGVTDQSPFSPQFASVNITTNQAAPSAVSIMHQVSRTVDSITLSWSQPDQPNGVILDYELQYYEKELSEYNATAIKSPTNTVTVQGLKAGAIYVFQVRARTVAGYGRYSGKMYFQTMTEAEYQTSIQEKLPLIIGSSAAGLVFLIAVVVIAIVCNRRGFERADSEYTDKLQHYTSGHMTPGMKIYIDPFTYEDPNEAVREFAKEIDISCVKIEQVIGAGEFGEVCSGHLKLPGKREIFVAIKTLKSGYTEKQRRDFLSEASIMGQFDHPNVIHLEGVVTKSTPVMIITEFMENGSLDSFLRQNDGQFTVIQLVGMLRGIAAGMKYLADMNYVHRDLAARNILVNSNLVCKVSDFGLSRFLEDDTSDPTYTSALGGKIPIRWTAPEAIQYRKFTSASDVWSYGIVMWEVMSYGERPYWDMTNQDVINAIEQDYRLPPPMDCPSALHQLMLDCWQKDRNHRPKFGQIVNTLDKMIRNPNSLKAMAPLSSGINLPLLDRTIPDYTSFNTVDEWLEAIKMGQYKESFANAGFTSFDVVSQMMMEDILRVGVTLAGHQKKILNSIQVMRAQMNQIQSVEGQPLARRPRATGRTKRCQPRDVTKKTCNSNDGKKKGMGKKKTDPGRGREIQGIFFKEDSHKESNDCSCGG
# L02 = assay: Growth inhibition of human L02 cells incubated for 3 days by MTT assay; assay type: functional; details: L02, 72 h, time 3 day
# [8] = biological target: Casein kinase I isoform delta (Homo sapiens, UniProt P48730); assay: Inhibition of recombinant human CK1delta (1 to 294 residues) using KRRRALS(p)VASLPGL as substrate incubated for 40 mins in presence of [gamma-33ATP] by scintillation counting based radiometry assay
# Casein kinase I isoform delta, sequence (P48730 whole entry, the tested form may be a part, canonical isoform): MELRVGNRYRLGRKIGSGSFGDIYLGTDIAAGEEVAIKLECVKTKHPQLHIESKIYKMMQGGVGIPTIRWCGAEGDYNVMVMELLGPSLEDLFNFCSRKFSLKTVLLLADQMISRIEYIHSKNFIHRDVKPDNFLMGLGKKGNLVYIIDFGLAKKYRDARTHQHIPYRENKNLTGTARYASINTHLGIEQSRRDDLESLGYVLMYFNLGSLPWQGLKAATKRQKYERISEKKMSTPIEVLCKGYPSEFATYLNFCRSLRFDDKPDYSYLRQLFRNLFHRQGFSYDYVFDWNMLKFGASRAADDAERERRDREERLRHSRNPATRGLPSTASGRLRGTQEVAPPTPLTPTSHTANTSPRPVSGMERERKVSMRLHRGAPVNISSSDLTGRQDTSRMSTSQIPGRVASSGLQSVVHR
# [9] = biological target: Serine/threonine-protein kinase TAO2 (Homo sapiens, UniProt Q9UL54); assay: Inhibition of recombinant human TAO2 (1 to 320 residues) using myelin basic protein as substrate incubated for 40 mins in presence of [gamma33P]ATP by scintillation counting based radiometry assay
# Serine/threonine-protein kinase TAO2, sequence (Q9UL54 whole entry, the tested form may be a part): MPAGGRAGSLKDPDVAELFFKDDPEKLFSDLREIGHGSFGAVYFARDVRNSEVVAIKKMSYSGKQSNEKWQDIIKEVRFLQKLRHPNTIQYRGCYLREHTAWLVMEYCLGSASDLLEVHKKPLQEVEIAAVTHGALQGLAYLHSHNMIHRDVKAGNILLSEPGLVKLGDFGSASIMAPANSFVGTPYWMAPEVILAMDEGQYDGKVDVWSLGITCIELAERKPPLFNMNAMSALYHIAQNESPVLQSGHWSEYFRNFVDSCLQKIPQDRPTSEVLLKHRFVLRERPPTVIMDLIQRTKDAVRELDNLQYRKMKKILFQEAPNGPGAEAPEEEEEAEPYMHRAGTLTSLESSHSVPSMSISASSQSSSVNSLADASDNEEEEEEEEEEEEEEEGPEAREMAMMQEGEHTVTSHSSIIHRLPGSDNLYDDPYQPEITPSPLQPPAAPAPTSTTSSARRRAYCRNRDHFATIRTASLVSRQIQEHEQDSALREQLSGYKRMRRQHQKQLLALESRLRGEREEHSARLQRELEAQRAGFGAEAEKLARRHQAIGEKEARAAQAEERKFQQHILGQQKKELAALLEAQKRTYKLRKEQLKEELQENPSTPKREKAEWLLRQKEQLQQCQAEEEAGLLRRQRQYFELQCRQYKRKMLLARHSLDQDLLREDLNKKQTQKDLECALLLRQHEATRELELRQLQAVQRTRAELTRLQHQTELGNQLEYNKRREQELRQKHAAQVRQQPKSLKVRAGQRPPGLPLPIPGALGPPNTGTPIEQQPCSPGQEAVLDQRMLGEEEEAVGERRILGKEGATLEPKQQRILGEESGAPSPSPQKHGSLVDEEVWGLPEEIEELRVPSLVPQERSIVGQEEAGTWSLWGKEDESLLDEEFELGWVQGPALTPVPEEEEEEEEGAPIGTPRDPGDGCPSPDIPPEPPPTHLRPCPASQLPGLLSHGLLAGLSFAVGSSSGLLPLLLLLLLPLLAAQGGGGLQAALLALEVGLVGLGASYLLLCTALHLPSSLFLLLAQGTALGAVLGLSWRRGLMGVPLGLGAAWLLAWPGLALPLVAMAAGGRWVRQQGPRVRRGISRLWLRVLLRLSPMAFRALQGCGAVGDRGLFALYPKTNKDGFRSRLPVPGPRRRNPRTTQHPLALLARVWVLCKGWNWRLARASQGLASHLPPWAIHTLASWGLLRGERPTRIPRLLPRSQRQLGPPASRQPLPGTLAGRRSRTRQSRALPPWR
# [10] = biological target: Mitogen-activated protein kinase kinase kinase kinase 5 (Homo sapiens, UniProt Q9Y4K4); assay: Inhibition of recombinant human MAP4K5 using myelin basic protein as substrate incubated for 40 mins in presence of [gamma-33ATP by scintillation counting based radiometry assay
# Mitogen-activated protein kinase kinase kinase kinase 5, sequence (Q9Y4K4 whole entry): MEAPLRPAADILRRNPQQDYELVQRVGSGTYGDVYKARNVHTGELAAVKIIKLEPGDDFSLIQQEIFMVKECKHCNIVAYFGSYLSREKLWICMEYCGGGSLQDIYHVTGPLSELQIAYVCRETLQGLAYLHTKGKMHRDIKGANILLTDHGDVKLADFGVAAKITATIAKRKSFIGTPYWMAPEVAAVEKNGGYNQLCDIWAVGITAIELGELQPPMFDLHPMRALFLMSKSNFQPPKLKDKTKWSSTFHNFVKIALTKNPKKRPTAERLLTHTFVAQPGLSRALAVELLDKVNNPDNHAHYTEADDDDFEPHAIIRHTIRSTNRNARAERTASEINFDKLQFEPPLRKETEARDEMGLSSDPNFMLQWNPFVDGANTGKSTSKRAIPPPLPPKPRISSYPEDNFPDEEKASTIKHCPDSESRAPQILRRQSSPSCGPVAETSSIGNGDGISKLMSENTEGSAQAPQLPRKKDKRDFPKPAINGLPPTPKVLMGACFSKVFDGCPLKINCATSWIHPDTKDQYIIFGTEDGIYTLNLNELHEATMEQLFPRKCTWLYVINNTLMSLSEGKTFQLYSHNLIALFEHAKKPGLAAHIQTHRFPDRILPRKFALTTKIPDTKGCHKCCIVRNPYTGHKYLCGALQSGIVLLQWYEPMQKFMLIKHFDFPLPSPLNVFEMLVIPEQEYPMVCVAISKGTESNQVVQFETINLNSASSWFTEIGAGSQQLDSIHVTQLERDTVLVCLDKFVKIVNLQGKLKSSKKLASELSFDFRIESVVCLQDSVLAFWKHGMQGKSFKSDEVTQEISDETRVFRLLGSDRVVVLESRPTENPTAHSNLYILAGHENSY
# Mus musculus = species on record: Mus musculus; details: NOD-SCID, dose 30.0 mg/kg, time 18.0 day
# [11] = biological target: RAF proto-oncogene serine/threonine-protein kinase (Homo sapiens, UniProt P04049); assay: Inhibition of recombinant human C-Raf (306 to end residues) poly(Glu, Tyr) 4:1 as substrate incubated 40 mins in presence of [gamma-33ATP] by scintillation counting based radiometry assay
# Ephrin type-A receptor 2 = Ephrin type-A receptor 2 (Homo sapiens, UniProt P29317); assay: Inhibition of recombinant human EphA2 (596 to 900 residues) using poly(Glu, Tyr) 4:1 as substrate incubated for 40 mins in presence of [gamma-33ATP] by scintillation counting based radiometry assay
smiles,measurement,setting,value
CC(C)(C)c1cc(NC(=O)Nc2ccc(Nc3ncnc4c3OCCCN4)cc2)no1,TGI,NIH3T3,Dose-dependent effect
same,IC50,[1],20 nM
same,IC50,[2],686 nM
same,GI50,BGC-823,8470 nM
same,IC50,[3],6 nM
same,IC50,[4],494 nM
same,IC50,[5],50 nM
same,IC50,[6],1490 nM
same,GI50,[7],> 10000 nM
same,IC50,Ephrin type-B receptor 2,1090 nM
same,GI50,L02,> 10000 nM
same,IC50,[8],509 nM
same,IC50,[9],903 nM
same,IC50,[10],711 nM
same,inhibition,Mus musculus,Active
same,IC50,[11],232 nM
same,IC50,Ephrin type-A receptor 2,104 nM
